By IC50 is commonly meant the concentration that inhibits the measured activity by half.

Sequence of Human Full Length PARG (Q86W56 whole entry): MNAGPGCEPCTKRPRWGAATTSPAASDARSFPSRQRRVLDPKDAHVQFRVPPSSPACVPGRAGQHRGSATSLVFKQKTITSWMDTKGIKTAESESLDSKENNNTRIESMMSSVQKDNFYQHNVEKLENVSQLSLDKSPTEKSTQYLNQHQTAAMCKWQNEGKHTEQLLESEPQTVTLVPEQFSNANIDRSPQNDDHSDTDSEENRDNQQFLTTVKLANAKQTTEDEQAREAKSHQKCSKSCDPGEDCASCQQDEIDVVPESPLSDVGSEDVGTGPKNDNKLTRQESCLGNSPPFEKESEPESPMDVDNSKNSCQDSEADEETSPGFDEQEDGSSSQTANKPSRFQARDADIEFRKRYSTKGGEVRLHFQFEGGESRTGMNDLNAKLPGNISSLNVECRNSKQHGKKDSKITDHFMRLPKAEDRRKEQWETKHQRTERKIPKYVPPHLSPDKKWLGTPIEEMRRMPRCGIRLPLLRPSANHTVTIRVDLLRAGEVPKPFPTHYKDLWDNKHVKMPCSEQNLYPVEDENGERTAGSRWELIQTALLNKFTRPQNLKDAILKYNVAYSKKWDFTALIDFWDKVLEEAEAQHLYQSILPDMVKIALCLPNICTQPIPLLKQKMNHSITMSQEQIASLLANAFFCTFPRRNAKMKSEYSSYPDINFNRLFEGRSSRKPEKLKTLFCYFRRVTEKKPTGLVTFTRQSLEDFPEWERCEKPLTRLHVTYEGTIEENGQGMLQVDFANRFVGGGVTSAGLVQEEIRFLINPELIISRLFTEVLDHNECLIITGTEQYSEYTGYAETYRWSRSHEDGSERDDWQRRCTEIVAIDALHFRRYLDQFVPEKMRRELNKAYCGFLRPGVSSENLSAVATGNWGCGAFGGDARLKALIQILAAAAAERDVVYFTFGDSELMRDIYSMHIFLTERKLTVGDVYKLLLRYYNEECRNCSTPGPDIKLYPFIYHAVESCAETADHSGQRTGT

One experiment has as its target Human Full Length PARG (Homo sapiens (Human), UniProt Q86W56). As to the kind of experiment: PARG enzyme assay (TR-FRET). To be noted: read-out: PARG Biochem IC50. It is filed as biochemical.
As for `CC1(NS(=O)(=O)c2cc3c4c(cccc4c2)C(=O)NC3=O)CC1` [Example 447, N-(1-Methylcyclopropyl)-1,3-dioxo-benzo[de]isoquinoline-5-sulfonamide], the 50% inhibitory concentration (IC50) is 3470 nM. For `Cc1cc(Cn2c(=O)c3cc(S(=O)(=O)NC4(C)CC4)ccc3n(CC(C)(C)F)c2=O)on1` [Example 453, 1-(2-Fluoro-2-methyl-propyl)-N-(1-methylcyclopropyl)-3-[(3-methylisoxazol-5-yl)methyl]-2,4-dioxo-quinazoline-6-sulfonamide], the IC50 worked out at 348 nM.

`CC1(NS(=O)(=O)c2ccc3[nH]c(=O)n(CCc4ccccn4)c(=O)c3c2)CC1` [Example 495, N-(1-Methylcyclopropyl)-2,4-dioxo-3-[2-(2-pyridyl)ethyl]-1H-quinazoline-6-sulfonamide]: the IC50 came out at 7070 nM. Consider `Cn1c(=O)n(CCc2ccccn2)c(=O)c2cc(S(=O)(=O)NC3(C)CC3)ccc21` [Example 498, 1-Methyl-N-(1-methylcyclopropyl)-2,4-dioxo-3-[2-(2-pyridyl)ethyl]quinazoline-6-sulfonamide], for which the concentration for half-maximal inhibition (IC50) worked out at 3920 nM. Same read-out and setting: to `Cn1cnnc1Cn1c(=O)c2cc(S(=O)(=O)NC3(C)CC3)ccc2n(C)c1=O` [Example 499, 1-Methyl-N-(1-methylcyclopropyl)-3-[(4-methyl-1,2,4-triazol-3-yl)methyl]-2,4-dioxo-quinazoline-6-sulfonamide] belongs 2460 nM.

Staying with this experiment, now noted: read-out: PARG Biochem IC50 Geomean.
On to `Cc1cc(Cn2nc(Cl)c3ccc(S(=O)(=O)NC4(C)CC4)cc3c2=O)on1` [Example 262, 1-Chloro-N-(1-methylcyclopropyl)-3-[(3-methylisoxazol-5-yl)methyl]-4-oxo-phthalazine-6-sulfonamide], for which the IC50 is 1110 nM. The same measure, in the same setting: to `Cc1cc(Cn2c(=O)c3cc(S(=O)(=O)NC4(C)CC4)ccc3n(CCN3CCCCC3)c2=O)on1` [Example 278] belongs 526 nM; to `Cc1cc(Cn2nc(N(C)C)c3ccc(S(=O)(=O)NC4(C)CC4)cc3c2=O)on1` [Example 282], 638 nM. Turning to `Cc1cc(Cn2nc(C#CCN(C)C)c3ccc(S(=O)(=O)NC4(C)CC4)cc3c2=O)on1` [Example 283, 1-[3-(dimethylamino)prop-1-ynyl]-N-(1-methylcyclopropyl)-3-[(3-methylisoxazol-5-yl)methyl]-4-oxo-phthalazine-6-sulfonamide], the concentration for half-maximal inhibition (IC50) amounted to 512 nM. On to `Cc1cc(Cn2nc(C)c3ccc(S(=O)(=O)NC4(C)CC4)cc3c2=O)on1` [Example 284, 1-methyl-N-(1-methylcyclopropyl)-3-[(3-methylisoxazol-5-yl)methyl]-4-oxo-phthalazine-6-sulfonamide], for which the IC50 is 1180 nM.

On to `Cc1cc(Cn2cc(C#CCN(C)C)c3ccc(S(=O)(=O)NC4(C)CC4)cc3c2=O)on1` [Example 286, 4-[3-(Dimethylamino)prop-1-ynyl]-N-(1-methylcyclopropyl)-2-[(3-methylisoxazol-5-yl)methyl]-1-oxo-isoquinoline-7-sulfonamide], for which the IC50 stood at 842 nM. Still for that read-out and setting: to `Cc1cc(Cn2cc(CCCN(C)C)c3ccc(S(=O)(=O)NC4(C)CC4)cc3c2=O)on1` [Example 287, 4-[3-(dimethylamino)propyl]-N-(1-methylcyclopropyl)-2-[(3-methylisoxazol-5-yl)methyl]-1-oxo-isoquinoline-7-sulfonamide] belongs 1070 nM; to `Cc1cc(Cn2ncc3ccc(S(=O)(=O)NC4(C)CC4)cc3c2=O)on1` [Example 299, N-(1-Methylcyclopropyl)-3-[(3-methylisoxazol-5-yl)methyl]-4-oxo-phthalazine-6-sulfonamide], 1270 nM. On the same count and under the same terms, for `COC(=O)c1nn(Cc2cc(C)no2)c(=O)c2cc(S(=O)(=O)NC3(C)CC3)ccc12` [Example 301] the value was 836 nM. For `Cc1cc(Cn2nc(C(=O)O)c3ccc(S(=O)(=O)NC4(C)CC4)cc3c2=O)on1` [Example 302, 6-(N-(1-Methylcyclopropyl)sulfamoyl)-3-((3-methylisoxazol-5-yl)methyl)-4-oxo-3,4-dihydrophthalazine-1-carboxylic acid], the half-inhibitory concentration (IC50) was 6720 nM. With `CNC(=O)c1nn(Cc2cc(C)no2)c(=O)c2cc(S(=O)(=O)NC3(C)CC3)ccc12` [Example 303], the IC50 came out at 800 nM. The same measure, in the same setting: to `Cc1cc(Cn2cc(Br)c3ccc(S(=O)(=O)NC4(C)CC4)cc3c2=O)on1` [Example 307, 4-Bromo-N-(1-methylcyclopropyl)-2-[(3-methylisoxazol-5-yl)methyl]-1-oxo-isoquinoline-7-sulfonamide] belongs 2680 nM; to `Cc1cc(Cn2nc(C3CCCC3)c3ccc(S(=O)(=O)NC4(C)CC4)cc3c2=O)on1` [Example 309], 2520 nM. For `COc1nn(Cc2cc(C)no2)c(=O)c2cc(S(=O)(=O)NC3(C)CC3)ccc12` [Example 312, 1-Methoxy-N-(1-methylcyclopropyl)-3-[(3-methylisoxazol-5-yl)methyl]-4-oxo-phthalazine-6-sulfonamide], the half-maximal inhibitory concentration (IC50) came to 1230 nM. Turning to `Cc1cc(Cn2nc(CC3CCCCC3)c3ccc(S(=O)(=O)NC4(C)CC4)cc3c2=O)on1` [Example 314], the half-maximal inhibitory concentration (IC50) turned out to be 1370 nM. `COc1cccc(Cc2nn(Cc3cc(C)no3)c(=O)c3cc(S(=O)(=O)NC4(C)CC4)ccc23)c1` [Example 315]: the IC50 was 871 nM. In the case of `CCOc1nn(Cc2cc(C)no2)c(=O)c2cc(S(=O)(=O)NC3(C)CC3)ccc12` [Example 316, 1-Ethoxy-N-(1-methylcyclopropyl)-3-[(3-methylisoxazol-5-yl)methyl]-4-oxo-phthalazine-6-sulfonamide], the half-maximal inhibitory concentration (IC50) stood at 737 nM.

`Cc1cc(Cn2nc(OC3CCC3)c3ccc(S(=O)(=O)NC4(C)CC4)cc3c2=O)on1` [Example 319]: the 50% inhibitory concentration (IC50) stood at 859 nM. On the same count and under the same terms, to `Cc1cc(Cn2nc(CC3CCC3)c3ccc(S(=O)(=O)NC4(C)CC4)cc3c2=O)on1` [Example 320] belongs 674 nM; to `Cc1cc(Cn2cc(Cc3ccc(F)cc3)c3ccc(S(=O)(=O)NC4(C)CC4)cc3c2=O)on1` [Example 322, 4-[(4-Fluorophenyl)methyl]-N-(1-methylcyclopropyl)-2-[(3-methylisoxazol-5-yl)methyl]-1-oxo-isoquinoline-7-sulfonamide], 2100 nM; to `Cc1cc(Cn2nc(C(=O)N(C)C)c3ccc(S(=O)(=O)NC4(C)CC4)cc3c2=O)on1` [Example 326], 8630 nM. Same read-out and setting: to `Cc1cc(Cn2nc(C(=O)NCC3CCOCC3)c3ccc(S(=O)(=O)NC4(C)CC4)cc3c2=O)on1` [Example 331] belongs 795 nM; to `Cc1cc(Cn2nc(C(=O)NCC3CCN(C)CC3)c3ccc(S(=O)(=O)NC4(C)CC4)cc3c2=O)on1` [Example 333], 781 nM.

Take `Cn1cc(Cn2c(=O)c3cc(S(=O)(=O)NC4(C)CC4)ccc3n(CCN3CCCC3=O)c2=O)cn1` [Example 334]: the half-maximal inhibitory concentration (IC50) is 4220 nM. Regarding `CCOC(=O)C(F)n1c(=O)n(Cc2cc(C)no2)c(=O)c2cc(S(=O)(=O)NC3(C)CC3)ccc21` (centres unmarked) [Example 335], the 50% inhibitory concentration (IC50) stood at 1050 nM. Same read-out and setting: to `Cc1cc(Cn2c(=O)c3cc(S(=O)(=O)NC4(C)CC4)ccc3n(CC(C)O)c2=O)on1` (centres unmarked) [Example 338] belongs 523 nM; to `Cc1cc(Cn2c(=O)c3cc(S(=O)(=O)NC4(C)CC4)ccc3n(CCN3CCN(C)CC3)c2=O)on1` [Example 341], 511 nM.

Values taken from patent publication US10239843B2 (CANCER RESEARCH TECHNOLOGY LIMITED, priority 2014, dated 2019).
